Test results as given in US6355785B1, “Guanosine-rich oligonucleotide integrase inhibitors” (Aronex Pharmaceuticals, Inc., priority 1993, dated 2002).
Read-outs that look alike come from different tables or passages of the source. Marks after values point to notes of the source that are not given here.

Columns and labels:
[1] = tested on: NIH3T3; assay type: cell-based
Description: (§1) Cytotoxicity Analysis. The cytotoxicity of T30177 was assayed as described above. […] The degree of cell proliferation was determined according to the manufacturer's instructions.
(§2) Cytotoxicity Assays. The cytotoxicity of T30177 was determined using several different cell lines and primary human cells as described above. The cytotoxicity profile obtained for log phase growing cells was variable depending upon the cell line used, while the slower growing PBMCs, PBLs, and macrophages all tolerated the compound at concentrations exceeding 100 μM as monitored using the trypan blue exclusion, [^3H]thymidine uptake, or [^3H]leucine uptake techniques.

[2] = tested on: Vero; assay type: cell-based
Description: as §1, §2

[3] = tested on: HIV-2 (ROD, EHO); test: HIV-2 infection assay in MT4 cells; assay type: cell-based; conditions: read-out: IC50 virus production
[4] = tested on: HIV-1RF; test: HeLa-CD4-LTR-β-galactosidase cell virus infection assay; assay type: cell-based
[5] = target: T1, HIV-1 integrase deletion mutant IN1-212 (Human immunodeficiency virus type 1 group M subtype B, UniProt P12497); test: Disintegration assay, IN1-212; assay type: biochemical
T1 construct: purchased gift of Drs; T. Jenkins and R. Craigie, NIDDK, NIH (not bought)

[6] = Thermal denaturation of oligomer fold (UV, Tm); assay type: physicochemical
[7] = design: species or system cynomolgus monkeys; conditions: cynomolgus monkey, in vivo
Description: Hematology and coagulation parameters. Hematology and coagulation parameters were determined 9-11 days prior to the start of the study, just prior to administering doses 1 (day 1) and 12 (day 23), five minutes after dosing (coagulation only), 30 minutes and 4 hours following dosing, one day after the 12th dose (day 24), and in recovery monkeys at sacrifice (day 37). The following were determined: red blood cell count and morphology, total and differential while blood cells, hemoglobin, hematocrit, prothrombin time, fibrinogen, mean cell hemoglobin, mean corpuscular volume, mean corpuscular hemoglobin concentration, platelet count, activate partial thromboplastin time, and D-dime. Hematology was determined at Sierra Nevada Laboratories (Reno, Nev.).

[8] = design: species or system HIV-positive human patients; conditions: human, in vivo
Description: Four HIV-infected patients/group were dosed with AR177 at 0.75 mg/kg and […], and two HIV-infected patients were dosed so far with AR177 at 3.0 mg/kg by intravenous infusion over two hours.
Blood was collected in EDTAp coated tubes at 0.25, 05, 1, 2, 2.05, 3, 3.5, 4, 6, 8, 11, 14, 26, 48, 98, and 122 hours following initiation of drug administration. Plasma was obtained by low speed centrifugation of the blood, and was stored frozen until analyzed by HPLC for AR177 concentration. The concentration of AR177 was determined in patient plasma using a validated anion-exchange HPLC method at the Division of Clinical Pharmacy of the University of California, San Francisco. This method has a limit of quantitation of 15 ng/mL in human plasma.
Pharmacokinetic parameters were calculated using PKAnalyst software (MicroMath, Salt Lake City, Utah). The pharmacokinetic data best fit a two compartment model for all of the patients. The alpha and beta half-lives were almost identical in each of the patients, based on the software interpretation of the AR177 plasma concentration versus time plot (FIGS. 56-59). For this reason, only one half-life is reported.

[9] = tested on: Vaccinia virus
[10] = tested on: Coxsackie virus (B4)
[11] = tested on: Polio virus-1
[12] = Oligomer folding by circular dichroism; conditions: KCl, 25° C., 20 mM Li3PO4
[13] = tested on: CD4- and gp120-mediated cell fusion; test: cells; assay type: cell-based
[14] = cynomolgus monkey, in vivo
[15] = target: recombinant HIV-1 integrase (wild-type) (Human immunodeficiency virus type 1 group M subtype B, UniProt P12497); conditions: previously reported by Ojwang et al., cited from earlier work
[16] = tested on: HIV-1DV; test: Analysis of HIV-1 RNA and DNA in single cycle assays, SUP T1; assay type: cell-based
[17] = in vitro; conditions: human

Compound: 5′-gtggtgggtgggtgggt-3′ (GTGGTGGGTGGGTGGGT; phosphorothioate termini, further chemistry not given here) [T30177]
- CC50 [1]: > 100 µM
- TC25 [1]: >100 µM
- TC95 [1]: >100 µM
- CC50 [2]: > 100 µM
- TC25 [2]: >100 µM
- TC95 [2]: >100 µM
- IC50 ([3]; HIV-2EHO): 5.98 ± 1.05 µM
- IC50 ([3]; HIV-2ROD): 27.5 ± 11.6 µM
- IC50 ([4]; HIV-1RF, read-out: IC50 β-galactosidase production, virus infection assay): 9 nM
- direct effect on β-galactosidase enzyme activity ([4]; up to 10 μM, control experiment): no observable direct effect
- IC50 [5]: 600 nM
- Tm ([6]; 1 mM KCl): 53 °C
- Tm ([6]; 10 mM KCl, calculated from linear fit): 70* ° C.
- Tm ([6]; 180 mM KCl, calculated from linear fit): 92* ° C.
- eosinophils [7]: acute decrease in eosinophils
- lymphocytes [7]: acute and transient increase in lymphocytes
- initial volume of distribution ([8]; 0.75 mg/kg): 0.16 ± 0.05 L/kg
- steady-state volume of distribution ([8]; 0.75 mg/kg): 0.14 ± 0.05 L/kg
- initial volume of distribution ([8]; 3 mg/kg): 0.08 ± 0.00 L/kg
- steady-state volume of distribution ([8]; 3 mg/kg): 0.05 ± 0.03 L/kg
- IC50 virus-induced cytopathogenicity ([9]; Vaccinia virus): >200 µg/mL
- MCC minimum concentration altering normal cell morphology ([9]; Vaccinia virus assay): 400 μg/mL
- IC50 virus-induced cytopathogenicity ([10]; Coxsackie virus (B4)): >200 µg/mL
- MCC minimum concentration altering normal cell morphology ([10]; Coxsackie virus (B4) assay): ≧400 μg/mL
- IC50 virus-induced cytopathogenicity ([11]; Polio virus-1): >200 µg/mL
- MCC minimum concentration altering normal cell morphology ([11]; Polio virus-1 assay): ≧400 μg/mL
- midpoint of K+ induced folding transition (CD, 264 nm) [12]: 0.15 mM

Compound: 5′-gtggtgggtgggtgggt-3′ [T30177] (GTGGTGGGTGGGTGGGT; phosphorothioate termini, further chemistry not given here)
- fusion IC50 relative to virus infection assay IC50 [13]: approximately 100 fold
- IC50 ([13]; read-out: IC50 CD4- and gp120-mediated cell fusion): 1000 nM
- Body Weights (2.5 mg/kg, Day 7): 3.1 ± 0.6
- Body Weights (2.5 mg/kg, Day 14): 3.2 ± 0.6
- Body Weights (2.5 mg/kg, Day 21): 3.2 ± 0.6
- Body Weights (2.5 mg/kg, Day 25): 3.1 ± 0.6
- Body Weights (2.5 mg/kg, Prestudy): 3.1 ± 0.5
- Body Weights (10 mg/kg, Day 7): 3.2 ± 0.7
- Body Weights (10 mg/kg, Day 14): 3.3 ± 0.7
- Body Weights (10 mg/kg, Day 21): 3.3 ± 0.7
- Body Weights (10 mg/kg, Day 25): 3.2 ± 0.7
- Body Weights (10 mg/kg, Prestudy): 3.2 ± 0.7
- treatment-related clinical sign (40 mg/kg): discoloration around the eyes in three high-dose animals
- Body Weights (40 mg/kg, Day 7): 3.2 ± 0.6
- Body Weights (40 mg/kg, Day 14): 3.3 ± 0.6
- Body Weights (40 mg/kg, Day 21): 3.2 ± 0.6
- Body Weights (40 mg/kg, Day 25): 3.1 ± 0.6
- Body Weights (40 mg/kg, Prestudy): 3.2 ± 0.6
- mortality (2.5, 10, 40 mg/kg every other day, 12 doses): No animals died
- body weight (12 doses): no effects on body weight
- ECG recordings (cynomolgus monkey, in vivo): No abnormalities
- histopathology of organs and tissues [14]: No clearly treatment-related histopathologic changes
- organ weight [14]: no effects on organ weight
- IC50 ([15]; read-out: IC50 3′-PROC): 79 nM
- IC50 ([15]; read-out: IC50 STR · TRA): 49 nM

Compound: Cc1cn([C@H]2C[C@H](N=[N+]=[N-])[C@@H](CO)O2)c(=O)[nH]c1=O [AZT, 3′-azido-3′-deoxythymidine]
- viral DNA synthesis (PCR) ([16]; 36 hr post-infection): marked decrease in viral DNA synthesis
- HIV-1 specific transcript (RT-PCR) ([16]; drug added at zero hours): viral mRNA was still being produced
- CC50 [17]: ~10 µM
